Entries after “also recorded” stand apart in the source; their conditions may differ. Where two headings read alike, the source gives them in different places.
Assays:
mouse ESC-derived MNs [1] = experiment: MN survival with activated BV2 cells; format: cell-based
mouse ESC-derived MNs [2] = experiment: Compounds on unstressed MNs; format: cell-based; details: for toxicity to unstressed MNs: absence of any stress; for survival of unstressed MNs: unstressed conditions
mouse ESC-derived MNs [3] = experiment: MN survival with DetaNO; format: cell-based
mouse ESC-derived MNs [4] = experiment: CHIR rescue of CP681301-mediated cytotoxicity; format: cell-based; details: 5 μM CP681301, increasing concentrations of CHIR (1.25-2.5 µM)
human iPSC-derived MNs [5] = experiment: TUBB3 immunostaining and neurite segmentation of human MNs with DetaNO; format: cell-based
CDK9 [6] = target: T1, CDK9 (Homo sapiens, UniProt P50750); details: 10 μM; ref Fabian et al., 2005; http://lincs.hms.harvard.edu/db/datasets/20044/; cited from earlier work
T1 sequence (P50750 whole entry, species assumed): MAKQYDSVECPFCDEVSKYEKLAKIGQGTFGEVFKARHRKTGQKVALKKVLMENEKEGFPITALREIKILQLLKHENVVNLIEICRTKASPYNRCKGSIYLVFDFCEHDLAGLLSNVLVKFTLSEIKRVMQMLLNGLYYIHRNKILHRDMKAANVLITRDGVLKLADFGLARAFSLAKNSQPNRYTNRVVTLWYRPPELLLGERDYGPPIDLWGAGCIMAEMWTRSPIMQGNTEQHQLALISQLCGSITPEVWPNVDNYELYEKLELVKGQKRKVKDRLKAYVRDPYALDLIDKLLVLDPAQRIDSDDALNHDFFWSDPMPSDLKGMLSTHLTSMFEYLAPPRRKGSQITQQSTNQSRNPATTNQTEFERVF
T1 sequence (O60563 whole entry partner, species assumed): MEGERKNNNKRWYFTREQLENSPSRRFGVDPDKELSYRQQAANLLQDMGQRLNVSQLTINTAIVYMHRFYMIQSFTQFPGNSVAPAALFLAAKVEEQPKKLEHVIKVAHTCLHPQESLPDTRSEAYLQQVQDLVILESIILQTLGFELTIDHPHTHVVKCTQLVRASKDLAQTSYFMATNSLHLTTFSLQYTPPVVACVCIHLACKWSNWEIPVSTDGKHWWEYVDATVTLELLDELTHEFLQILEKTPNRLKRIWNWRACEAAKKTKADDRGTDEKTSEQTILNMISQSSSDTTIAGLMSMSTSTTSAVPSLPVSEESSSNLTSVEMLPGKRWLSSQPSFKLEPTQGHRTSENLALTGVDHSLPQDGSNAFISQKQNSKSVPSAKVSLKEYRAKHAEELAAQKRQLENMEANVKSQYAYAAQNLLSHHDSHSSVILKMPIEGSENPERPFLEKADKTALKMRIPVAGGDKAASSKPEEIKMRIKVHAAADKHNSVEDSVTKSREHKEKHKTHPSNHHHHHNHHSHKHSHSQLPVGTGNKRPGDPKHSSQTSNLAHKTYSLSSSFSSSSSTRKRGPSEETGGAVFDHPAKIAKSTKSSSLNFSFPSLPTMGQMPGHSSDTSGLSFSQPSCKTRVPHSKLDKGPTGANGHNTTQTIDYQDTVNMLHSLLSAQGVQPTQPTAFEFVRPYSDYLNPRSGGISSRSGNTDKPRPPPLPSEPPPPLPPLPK

CDK7 [7] = target: T2, CDK7 (Homo sapiens, UniProt P50613); details: 10 μM; ref Fabian et al., 2005; http://lincs.hms.harvard.edu/db/datasets/20044/; cited from earlier work
T2 sequence (P50613 whole entry, species assumed): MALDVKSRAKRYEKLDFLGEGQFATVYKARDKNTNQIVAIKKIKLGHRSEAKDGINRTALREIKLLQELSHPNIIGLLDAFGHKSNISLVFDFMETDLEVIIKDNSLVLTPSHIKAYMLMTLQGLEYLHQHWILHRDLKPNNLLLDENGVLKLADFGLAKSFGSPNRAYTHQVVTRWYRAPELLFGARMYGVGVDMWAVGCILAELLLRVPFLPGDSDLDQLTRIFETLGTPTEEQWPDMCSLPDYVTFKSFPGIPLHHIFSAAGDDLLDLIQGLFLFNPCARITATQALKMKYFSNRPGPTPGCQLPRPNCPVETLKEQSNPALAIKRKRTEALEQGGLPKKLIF
T2 sequence (P51946 whole entry partner, species assumed): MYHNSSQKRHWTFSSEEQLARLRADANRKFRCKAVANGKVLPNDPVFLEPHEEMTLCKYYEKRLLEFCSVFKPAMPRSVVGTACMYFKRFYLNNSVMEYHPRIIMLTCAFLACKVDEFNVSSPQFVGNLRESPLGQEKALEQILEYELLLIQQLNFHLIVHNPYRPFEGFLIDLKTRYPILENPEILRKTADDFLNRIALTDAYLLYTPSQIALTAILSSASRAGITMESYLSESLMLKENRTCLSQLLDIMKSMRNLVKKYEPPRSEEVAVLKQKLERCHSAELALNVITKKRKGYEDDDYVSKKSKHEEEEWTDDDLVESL
T2 sequence (P51948 whole entry partner, species assumed): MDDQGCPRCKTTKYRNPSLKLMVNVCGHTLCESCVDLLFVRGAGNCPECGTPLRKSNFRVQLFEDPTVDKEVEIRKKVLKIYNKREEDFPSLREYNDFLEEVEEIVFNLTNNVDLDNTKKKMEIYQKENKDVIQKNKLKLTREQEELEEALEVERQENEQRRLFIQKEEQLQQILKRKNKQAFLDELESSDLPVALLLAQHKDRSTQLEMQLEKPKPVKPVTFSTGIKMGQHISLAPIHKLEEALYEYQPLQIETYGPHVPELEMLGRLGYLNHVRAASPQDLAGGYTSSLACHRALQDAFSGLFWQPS

[8] = test system: FACS-purified mouse ESC-derived MNs; experiment: FACS-purified MNs cultured with DetaNO in the absence of astrocytes; format: cell-based
human iPSC-derived MNs [9] = experiment: CellTiter-Glo assay, human MNs stressed with 400 μM DetaNO; format: cell-based
GSK3β = GSK3β (Homo sapiens, UniProt P49841); details: 1 μM; ref Chen et al., 2016; cited from earlier work
Chain of GSK3β (P49841 whole entry, species assumed): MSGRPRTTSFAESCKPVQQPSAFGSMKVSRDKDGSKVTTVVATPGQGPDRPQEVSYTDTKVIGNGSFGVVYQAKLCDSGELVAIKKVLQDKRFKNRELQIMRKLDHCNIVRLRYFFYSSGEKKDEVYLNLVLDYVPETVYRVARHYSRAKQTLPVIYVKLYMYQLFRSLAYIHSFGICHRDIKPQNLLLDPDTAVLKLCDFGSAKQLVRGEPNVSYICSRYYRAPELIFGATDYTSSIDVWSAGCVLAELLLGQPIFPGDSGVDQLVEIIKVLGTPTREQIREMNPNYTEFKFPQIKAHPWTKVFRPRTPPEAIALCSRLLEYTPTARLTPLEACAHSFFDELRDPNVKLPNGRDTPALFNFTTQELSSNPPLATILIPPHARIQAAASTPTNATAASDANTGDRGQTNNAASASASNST

CDK9 [10] = target: T1, CDK9; experiment: CDK9 LANCE Assay; details: biochemical profiling
iPSC-derived MNs = experiment: Label-free quantitative phosphoproteomics of DetaNO-treated MNs; format: cell-based, human
CDK7 [11] = target: T2, CDK7; experiment: CDK7 LANCE Assay; details: biochemical profiling

Compound	protection of MNs from activated BV2-induced degeneration (words) (mouse ESC-derived MNs [1])	toxicity to unstressed MNs (mouse ESC-derived MNs [2])	protection of MNs from DetaNO-induced degeneration (words) (mouse ESC-derived MNs [3])	also measured
CC1CCN=C(N)S1 (centres unmarked) [AMT, 2-amino-5,6-dihydro-6-methyl-4H-1,3-thiazine]	rescued			
CC(C)(C)c1cnc(CSc2cnc(NC(=O)C3CCNCC3)s2)o1 [BMS-387032]	robustly protected; also recorded: rescued	induced toxicity	robustly protected; also recorded: rescued	
Cc1c[nH]c(-c2cnc(NCCNc3ccc(C#N)cn3)nc2-c2ccc(Cl)cc2Cl)n1 [CHIR]		did not show any cytotoxic effects	failed to protect	survival of unstressed MNs (mouse ESC-derived MNs [2]): small, but significant increase; rescue of MNs from CP681301-mediated cytotoxicity (mouse ESC-derived MNs [4]): rescued
NCCN(CCN)/[N+]([O-])=N/O [DetaNO, diethylenetriamine/NO adduct]				number of TUBB3-positive punctae (human iPSC-derived MNs [5]; 400 μM DetaNO for 24 h): large increase; area of TUBB3-positive neurite segments (human iPSC-derived MNs [5]; iPSC-derived MNs, DetaNO): decreased
NS(=O)(=O)c1ccc(Nc2nc(OCC3CCCCC3)c3[nH]cnc3n2)cc1 [NU6102]			not protective	
CC(=O)c1c(C)c2cnc(Nc3ccc(N4CCNCC4)cn3)nc2n(C2CCCC2)c1=O [PD332991]			not neuroprotective	ATP binding to CDK9 (CDK9 [6]): significantly reduces ATP binding; ATP binding to CDK7 (CDK7 [7]): significantly reduces ATP binding
COc1ccc(F)c(F)c1C(=O)c1cnc(NC2CCN(S(C)(=O)=O)CC2)nc1N [R-547]	robustly protected; also recorded: rescued		robustly protected; also recorded: rescued	
CCc1cnn2c(NCc3ccc[n+]([O-])c3)cc(N3CCCC[C@H]3CCO)nc12 [dinaciclib]	robustly protected	induced toxicity	robustly protected	protection of MNs from activated BV2-induced degeneration (words) (mouse ESC-derived MNs [1]; listed as Dinaciclib): rescued; protection of FACS-purified MNs from DetaNO-induced degeneration [8]: protected; rescue of human MNs from DetaNO stress, CellTiter-Glo ATP levels (human iPSC-derived MNs [9]): potently rescued; protection of MNs from DetaNO-induced degeneration (words) (mouse ESC-derived MNs [3]; listed as Dinaciclib): rescued; reduction of the activity of GSK3β (GSK3β): about 70%
CN1CC[C@H](c2c(O)cc(O)c3c(=O)cc(-c4ccccc4Cl)oc23)[C@H](O)C1 [flavopiridol]	robustly protected; also recorded: rescued	induced toxicity	robustly protected; also recorded: rescued	
O=C1Cc2c([nH]c3ccc(Br)cc23)-c2ccccc2N1 [kenpaullone]		no visible toxicity	robustly protected	inhibition of CDK9 (CDK9 [10]): does not inhibit; protection of human MN neurites from DetaNO, TUBB3 neurite segments (human iPSC-derived MNs [5]; 400 μM DetaNO, 0.625 μM kenpaullone, two iPSC lines): robustly protected; phosphopeptide levels of MAPT, MAP1B and MAP2 (iPSC-derived MNs; DetaNO-treated iPSC-derived MNs): consistently decreased; phosphorylation levels of CLASP1, CLASP2 and DPYSL2 (iPSC-derived MNs; compared with MNs cultured with DetaNO): reduced; survival of unstressed MNs (mouse ESC-derived MNs [2]): small increase in MN survival; inhibition of CDK7 (CDK7 [11]): does not inhibit

Reference: PMC6409486 (Stem Cell Reports, 2019)
